Assay results reported in patent US10124033B2, “Peptides and methods of use” (BAXALTA INCORPORATED, priority 2014, dated 2018).
Read-outs that look alike come from different tables or passages of the source. Non-standard residues stand in square brackets, D forms with d. Residues, ends and D or L forms follow the SMILES beside them. Tle = CC(C)(C)[C@H](N)C(=O)O

Assays:
[1] = molecular target: T1, Protein S/APC cofactor activity (Homo sapiens, UniProt P07225); test: CAT assay: Protein S/APC-dependent thrombin generation in FVIII-inhibited plasma; format: biochemical; conditions: Protein S-depleted plasma supplemented with APC and Protein S, FVIII-inhibited
T1 construct: host or cells: plasma
T1 sequence (P07225 41-676 limits assumed): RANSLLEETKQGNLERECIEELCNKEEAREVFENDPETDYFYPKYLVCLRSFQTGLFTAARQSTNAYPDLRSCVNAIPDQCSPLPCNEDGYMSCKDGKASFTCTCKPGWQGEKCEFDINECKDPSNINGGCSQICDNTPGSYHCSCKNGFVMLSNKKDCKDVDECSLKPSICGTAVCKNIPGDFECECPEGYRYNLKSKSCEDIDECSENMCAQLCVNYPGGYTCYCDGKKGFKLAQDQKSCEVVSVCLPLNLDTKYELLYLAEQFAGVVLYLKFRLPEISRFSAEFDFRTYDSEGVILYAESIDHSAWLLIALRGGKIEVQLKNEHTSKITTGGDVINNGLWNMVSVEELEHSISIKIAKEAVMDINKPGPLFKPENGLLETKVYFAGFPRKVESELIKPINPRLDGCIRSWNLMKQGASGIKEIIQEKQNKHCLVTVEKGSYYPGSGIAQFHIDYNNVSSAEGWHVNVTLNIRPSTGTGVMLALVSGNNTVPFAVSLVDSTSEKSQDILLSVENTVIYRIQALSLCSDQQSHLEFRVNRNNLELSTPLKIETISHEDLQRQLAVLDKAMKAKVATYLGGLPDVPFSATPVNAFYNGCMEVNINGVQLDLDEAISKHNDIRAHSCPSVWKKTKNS
Method: Peptides also were tested for improvement of Protein S/APC-dependent thrombin generation in hemophilic plasma using a CAT assay. Protein S enhances the anticoagulation of APC in plasma. The CAT assay quantifies the effect of Protein S on APC-mediated thrombin generation initiated via the extrinsic coagulation pathway (Nicolaes, Blood Coagul. Fibrinolysis, 8:28 (1997)). APC (35 nM) and Protein S (25 nM) was added to Protein 5-depleted plasma, and plasma samples were incubated with high titer heat inactivated anti-human FVIII plasma raised in goat (4490 BU/ml; Baxter BioScience, Vienna, Austria; 50 BU/ml final plasma concentration). Thrombin formation in plasma was followed by calibrated automated thrombography (CAT) in a Fluoroskan Ascent® reader (Thermo Labsystems, Helsinki, Finland) and quantified via the thrombin peak-height. Thrombin generation was determined at high tissue factor (TF) concentration in the absence and in the presence of APC at a concentration that reduces the peak height to ˜20%. The inhibitory effect of peptides described herein on the APC cofactor activity of Protein S (PS) in plasma was measured in FVIII-inhibited pooled normal plasma supplemented with APC. Complete (100%) Protein S/APC inhibition is the height of the thrombin peak without addition of APC. Lack of (0%) PS/APC inhibition correlates to the thrombin peak-height value with a certain amount of APC. Peptides were ranked by their normalized values in comparison to the mean of wild-type controls including SD at two defined peptide concentrations (EC50 and EC90).
Exemplary conditions for the CAT assay are as follows. Protein S-depleted plasma was supplemented with 35 nM APC and […]. Stock APC was diluted with 10 pM TF and 15 μM PL. Lyophilized peptides were dissolved in 100% DMSO to a 5 mM stock concentration and further diluted with HNABSA5-buffer+0.1% Tween80. […] In a 96 well Immulon 2HB (transparent), U-bottom (ThermoElectron) plate was mixed 80 μl plasma (+CTI+Z994-5), 10 μl peptide dilution, and 10 μl APC-TF-PL-MIX or Calibrator. Thrombin generation was initiated by dispensing 20 μL of FluCa reagent containing fluorogenic substrate and HEPES-buffered CaCl2 (100 mM) into each well. Fluorescence intensity was recorded at 37° C. using the Fluoroskan Ascent® reader (filters 390 nm excitation and 460 nm emission). The parameters of the resulting thrombin generation curves were calculated using the Thrombinoscope™ software (Thrombinoscope) and thrombin calibrator to correct for inner filter and substrate consumption effects (Hemker, Pathophysiol Haemost Thromb, 33: 415 (2003)).

Protein S = molecular target: T2, Protein S (Homo sapiens, UniProt P07225); test: LANCE IC50 assay (competition TR-FRET) with tracer JBS0684; format: binding
T2 sequence (P07225 41-676 limits assumed): T1 sequence (P07225 41-676 limits assumed)
Method: Peptides also were characterized in a competition, homogenous europium-based TR-FRET assay (LANCE IC50 assay) using JBS0684 as a tracer (i.e., competitor for Protein S binding). The following reagents were mixed together in a Perkin-Elmer ProxiPlate MTP well (indicated concentration is the final concentration): Eu-labeled Protein S (10 nM), Ulight™-labeled Streptavidin (100 nM), tracer (JBS0684 (300 nM)), and peptide (titrated in three-fold dilution steps). The final volume was 50 μl/well. The reaction mix was incubated for 1 hour at room temperature, then the fluorescence emission at 665 nm was recorded on a multi-mode reader (SpectraMax® M5, Molecular Devices) using the following instrument settings: Ex 340 nm, Em 665 nm, delay 50 μsec, integration 100 μsec, reads 100. Binding of tracer peptides to soluble europium-labeled Protein S was detected by Streptavidin labeled with an acceptor fluorophor (ULight™). Inhibition of tracer-binding to Protein S by a non-biotinylated peptide results in a decrease of TR-FRET between the Eu-labeled Protein S and ULight™-labeled Streptavidin. IC50 values were obtained from peptide titration curves at constant tracer concentration using non-linear regression of the fluorescence emission signals at 665 nm.

[2] = Table 4, multiple substitutions in JBS2572, read-out: LANCE IC50

| SMILES | IC50 (Protein S; [2]) [nM] | other results |
| --- | --- | --- |
| CC(=O)N[C@H](C(=O)NCC(=O)N[C@@H](Cc1c[nH]cn1)C(=O)N[C@H](C(=O)N[C@@H](CO)C(=O)N[C@@H](C)C(=O)NCC(=O)N[C@@H](Cc1c[nH]c2ccccc12)C(=O)N[C@@H](Cc1ccc(O)cc1)C(=O)N[C@@H](CC(=O)O)C(=O)N[C@@H](Cc1ccc(O)cc1)C(=O)N[C@@H](CC(N)=O)C(=O)N[C@@H](Cc1ccccc1)C(=O)N[C@@H](CC(=O)O)C(=O)N[C@@H](Cc1c[nH]cn1)C(=O)N[C@@H](Cc1ccc(O)cc1)C(=O)N[C@@H](CCCNC(=N)N)C(=O)N[C@@H](CCC(=O)O)C(=O)N[C@@H](Cc1ccccc1)C(=O)N[C@H](C(N)=O)[C@@H](C)O)C(C)C)[C@@H](C)O [JBS2512] (Ac-TGHVSAGWYDYNFDHYREFT-NH2) | – | EC50 [1]: 24 nM |
| CC(=O)N[C@H](C(=O)NCC(=O)N[C@@H](CC(C)C)C(=O)N[C@H](C(=O)N[C@@H](CCC(=O)O)C(=O)N[C@@H](C)C(=O)NCC(=O)N[C@@H](Cc1c[nH]c2ccccc12)C(=O)N[C@@H](Cc1ccc(O)cc1)C(=O)N[C@@H](CC(=O)O)C(=O)N[C@@H](Cc1ccc(O)cc1)C(=O)N[C@@H](CC(N)=O)C(=O)N[C@@H](Cc1ccccc1)C(=O)N[C@@H](CC(=O)O)C(=O)N[C@H](C(=O)N[C@@H](Cc1ccc(O)cc1)C(=O)N[C@@H](CCCNC(=N)N)C(=O)N[C@@H](CCC(=O)O)C(=O)N[C@@H](Cc1ccccc1)C(=O)N[C@H](C(N)=O)[C@@H](C)O)[C@@H](C)O)C(C)C)[C@@H](C)O [JBS3192] (Ac-TGLVEAGWYDYNFDTYREFT-NH2) | 2.8 | – |
| CC(=O)N[C@H](C(=O)NCC(=O)N[C@@H](CC(C)C)C(=O)N[C@H](C(=O)N[C@@H](CCC(=O)O)C(=O)N[C@@H](C)C(=O)NCC(=O)N[C@@H](Cc1c[nH]c2ccccc12)C(=O)N[C@@H](Cc1ccc(O)cc1)C(=O)N[C@@H](CC(=O)O)C(=O)N[C@@H](Cc1ccc(O)cc1)C(=O)N[C@@H](CC(N)=O)C(=O)N[C@@H](Cc1ccccc1)C(=O)N[C@@H](CC(=O)O)C(=O)N[C@H](C(=O)N[C@@H](Cc1ccc(O)cc1)C(=O)N[C@@H](CCCNC(=N)N)C(=O)N[C@@H](CCC(=O)O)C(=O)N[C@@H](Cc1ccccc1)C(=O)N[C@H](C(N)=O)[C@@H](C)O)C(C)C)C(C)C)[C@@H](C)O [JBS3193] (Ac-TGLVEAGWYDYNFDVYREFT-NH2) | 2.5 | – |
| CC(=O)N[C@H](C(=O)NCC(=O)N[C@@H](CC(C)C)C(=O)N[C@H](C(=O)N[C@@H](CO)C(=O)N[C@@H](C)C(=O)NCC(=O)N[C@@H](Cc1c[nH]c2ccccc12)C(=O)N[C@@H](Cc1ccc(O)cc1)C(=O)N[C@@H](CC(=O)O)C(=O)N[C@@H](Cc1ccc(O)cc1)C(=O)N[C@@H](CC(N)=O)C(=O)N[C@@H](CC(N)=O)C(=O)N[C@@H](CC(=O)O)C(=O)N[C@H](C(=O)N[C@@H](Cc1ccc(O)cc1)C(=O)N[C@@H](CCCNC(=N)N)C(=O)N[C@@H](CCC(=O)O)C(=O)N[C@@H](Cc1ccccc1)C(=O)N[C@H](C(N)=O)[C@@H](C)O)[C@@H](C)O)C(C)C)[C@@H](C)O [JBS3194] (Ac-TGLVSAGWYDYNNDTYREFT-NH2) | – | IC50 (Protein S): 1.8 nM |
| CC(=O)N[C@H](C(=O)NCC(=O)N[C@@H](CC(C)C)C(=O)N[C@H](C(=O)N[C@@H](CO)C(=O)N[C@@H](C)C(=O)NCC(=O)N[C@@H](Cc1c[nH]c2ccccc12)C(=O)N[C@@H](Cc1ccc(O)cc1)C(=O)N[C@@H](CC(=O)O)C(=O)N[C@@H](Cc1ccc(O)cc1)C(=O)N[C@@H](CC(N)=O)C(=O)N[C@@H](CC(N)=O)C(=O)N[C@@H](CC(=O)O)C(=O)N[C@H](C(=O)N[C@@H](Cc1ccc(O)cc1)C(=O)N[C@@H](CCCNC(=N)N)C(=O)N[C@@H](CCC(=O)O)C(=O)N[C@@H](Cc1ccccc1)C(=O)N[C@H](C(N)=O)[C@@H](C)O)C(C)C)C(C)C)[C@@H](C)O [JBS3195] (Ac-TGLVSAGWYDYNNDVYREFT-NH2) | 2 | – |
| CSCC[C@H](NC(=O)[C@H](Cc1ccc(O)cc1)NC(=O)[C@H](Cc1c[nH]cn1)NC(=O)[C@H](CC(=O)O)NC(=O)[C@H](CC(N)=O)NC(=O)[C@H](CC(N)=O)NC(=O)[C@H](Cc1ccc(O)cc1)NC(=O)[C@H](CC(=O)O)NC(=O)[C@H](Cc1ccc(O)cc1)NC(=O)[C@H](Cc1c[nH]c2ccccc12)NC(=O)CNC(=O)[C@H](C)NC(=O)[C@H](CO)NC(=O)[C@@H](NC(=O)[C@H](CC(C)C)NC(=O)CNC(=O)[C@@H](NC(C)=O)[C@@H](C)O)C(C)C)C(=O)N[C@@H](CCC(=O)O)C(=O)N[C@@H](Cc1ccccc1)C(=O)N[C@H](C(N)=O)[C@@H](C)O [JBS3198] (Ac-TGLVSAGWYDYNNDHYMEFT-NH2) | 2.5 | – |
| CC(=O)N[C@H](C(=O)NCC(=O)N[C@@H](CC(C)C)C(=O)N[C@H](C(=O)N[C@@H](CO)C(=O)N[C@@H](C)C(=O)NCC(=O)N[C@@H](Cc1c[nH]c2ccccc12)C(=O)N[C@@H](Cc1ccc(O)cc1)C(=O)N[C@@H](CC(=O)O)C(=O)N[C@@H](Cc1ccc(O)cc1)C(=O)N[C@@H](CC(N)=O)C(=O)N[C@@H](Cc1ccccc1)C(=O)N[C@@H](CC(=O)O)C(=O)N[C@H](C(=O)N[C@@H](Cc1ccc(O)cc1)C(=O)N[C@@H](CCCNC(=N)N)C(=O)N[C@@H](CCC(=O)O)C(=O)N[C@@H](Cc1ccccc1)C(=O)N[C@H](C(N)=O)[C@@H](C)O)[C@@H](C)O)C(C)(C)C)[C@@H](C)O [JBS3202, Ac-TGL-Tle-SAGWYDYNFDTYREFT-NH2] (Ac-TGL[Tle]SAGWYDYNFDTYREFT-NH2) | 1.6 | – |
